Drawing on US20230102554A1 (GB002, INC., priority 2019, published 2023), this text covers IC50 for 27 compounds.

Each structure is given as a SMILES string. Some results are limits rather than exact numbers.

The IC50 is the concentration that gives 50% inhibition.

Assay [1] addresses T1, Human PDGFRα, cytoplasmic domain (GST-PDGFRα) (Homo sapiens, UniProt P16234).
T1 construct: made in house
Kind of assay: Human PDGFRα biochemical inhibition assay (off-chip Mobility Shift Assay).

In assay [2] the target is T2, Human PDGFRβ, cytoplasmic domain (GST-PDGFRβ) (Homo sapiens, UniProt P09619).
T2 construct: made in house
T2 sequence (P09619 with tags, fused parts or gaps): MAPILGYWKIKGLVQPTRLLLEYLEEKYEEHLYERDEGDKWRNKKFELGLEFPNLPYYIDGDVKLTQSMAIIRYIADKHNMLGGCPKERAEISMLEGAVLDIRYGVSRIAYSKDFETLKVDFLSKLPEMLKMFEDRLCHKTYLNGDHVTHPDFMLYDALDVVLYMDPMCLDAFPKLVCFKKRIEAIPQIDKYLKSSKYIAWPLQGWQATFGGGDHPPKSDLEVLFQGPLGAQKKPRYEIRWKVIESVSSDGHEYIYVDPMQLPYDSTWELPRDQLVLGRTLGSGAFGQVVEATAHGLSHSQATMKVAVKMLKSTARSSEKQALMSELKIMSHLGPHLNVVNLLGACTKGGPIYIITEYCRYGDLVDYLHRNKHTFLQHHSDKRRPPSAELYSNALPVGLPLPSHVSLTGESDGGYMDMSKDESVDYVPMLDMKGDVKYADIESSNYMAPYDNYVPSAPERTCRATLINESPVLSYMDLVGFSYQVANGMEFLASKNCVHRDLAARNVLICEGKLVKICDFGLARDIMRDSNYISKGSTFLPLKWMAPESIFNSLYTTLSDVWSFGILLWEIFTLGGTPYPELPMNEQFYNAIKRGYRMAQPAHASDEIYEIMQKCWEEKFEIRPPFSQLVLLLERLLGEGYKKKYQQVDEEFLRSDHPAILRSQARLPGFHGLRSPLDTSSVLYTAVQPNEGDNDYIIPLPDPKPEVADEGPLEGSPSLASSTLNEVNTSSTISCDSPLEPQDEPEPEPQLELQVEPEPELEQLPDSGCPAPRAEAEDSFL
Kind of assay: Human PDGFRβ biochemical inhibition assay (off-chip Mobility Shift Assay). The gist of the method: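 GST-tagged cytoplasmic domain (aa 557-1106) from baculovirus was incubated 1 h at room temperature with compound, CSKtide, ATP at Km and Mg²⁺ in HEPES buffer, pH 7.5. Phosphorylated and unphosphorylated peptide were separated by off-chip mobility shift, and the product ratio P/(P+S) gave percent inhibition.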

T1 sequence (P16234 550-1089 T674I): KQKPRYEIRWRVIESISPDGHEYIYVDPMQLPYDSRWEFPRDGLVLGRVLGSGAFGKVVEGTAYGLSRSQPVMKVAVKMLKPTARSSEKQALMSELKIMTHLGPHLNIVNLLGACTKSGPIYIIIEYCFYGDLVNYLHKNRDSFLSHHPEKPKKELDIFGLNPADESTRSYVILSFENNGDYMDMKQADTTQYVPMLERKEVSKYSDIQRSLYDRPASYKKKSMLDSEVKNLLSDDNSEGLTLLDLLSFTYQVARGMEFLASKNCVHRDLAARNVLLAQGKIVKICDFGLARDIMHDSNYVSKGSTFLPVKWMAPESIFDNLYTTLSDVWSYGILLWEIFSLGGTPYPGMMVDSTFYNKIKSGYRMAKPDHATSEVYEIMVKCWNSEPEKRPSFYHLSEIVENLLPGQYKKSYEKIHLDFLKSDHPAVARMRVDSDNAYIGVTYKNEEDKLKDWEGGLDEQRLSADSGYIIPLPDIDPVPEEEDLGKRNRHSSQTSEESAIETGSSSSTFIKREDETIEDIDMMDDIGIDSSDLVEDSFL

As for `CCn1cc2ncc(N[C@@H](C)c3cc(NC(=O)c4ccc(CN5CCCC5)c(C(F)(F)F)c4)ccc3F)nc2n1` [Compound 443, (S)-N-(3-(1-((2-ethyl-2H-pyrazolo[3,4-b]pyrazin-6-yl)amino)ethyl)-4-fluorophenyl)-4-(pyrrolidin-1-ylmethyl)-3-(trifluoromethyl)benzamide], the half-inhibitory concentration (IC50) in assay [1] and in assay [2] was below 300 nM each time.
As to `CCn1cc2ncc(N[C@@H](C)c3cccc(NC(=O)c4cnc(C(C)C)s4)c3)nc2n1` [Compound 349, (S)-N-(3-(1-((2-ethyl-2H-pyrazolo[3,4-b]pyrazin-6-yl)amino)ethyl)phenyl)-2-isopropylthiazole-5-carboxamide], the concentration for half-maximal inhibition (IC50) in assay [1] and in assay [2] was below 300 nM each time.
Take `Cc1cc(C(=O)Nc2ccc(F)c([C@H](C)Nc3cnc4cnn(C)c4n3)c2)ccc1CN1CCN(C)CC1` [Compound 228, (S)-N-(4-fluoro-3-(1-((1-methyl-1H-pyrazolo[3,4-b]pyrazin-6-yl)amino)ethyl)phenyl)-3-methyl-4-((4-methylpiperazin-1-yl)methyl)benzamide]: the concentration for half-maximal inhibition (IC50) in assay [1] and in assay [2] was below 300 nM in each case.
For `C[C@H](Nc1cnc2cnn(C)c2n1)c1cccc(NC(=O)N2CCc3ccccc3C2)c1` [Compound 55, (S)-N-(3-(1-((1-methyl-1H-pyrazolo[3,4-b]pyrazin-6-yl)amino)ethyl)phenyl)-3,4-dihydroisoquinoline-2(1H)-carboxamide], the IC50 in assay [1] and in assay [2] was below 300 nM throughout.
Consider `CCn1cc2ncc(N[C@@H](C)c3cccc(NC(=O)c4ccc(N5CCN(C(=O)OC(C)(C)C)CC5)nc4)c3)nc2n1` [Compound 378, tert-butyl (S)-4-(5-((3-(1-((2-ethyl-2H-pyrazolo[3,4-b]pyrazin-6-yl)amino)ethyl)phenyl)carbamoyl)pyridin-2-yl) piperazine-1-carboxylate], for which the IC50 was below 300 nM in assay [1] and 300 to 1000 nM in assay [2].
Taken in the same sequence, the figures for `CCn1cc2ncc(N[C@@H](C)c3cc(NC(=O)Cc4cccc(Cl)c4)ccc3F)nc2n1` [Compound 635, (S)-2-(3-chlorophenyl)-N-(3-(1-((2-ethyl-2H-pyrazolo[3,4-b]pyrazin-6-yl)amino)ethyl)-4-fluorophenyl)acetamide] were below 300 nM and below 300 nM.
As to `Cc1cncc(C(=O)Nc2cccc([C@H](C)Nc3cnc4cc(C)sc4n3)c2)c1` [Compound 19, (S)-5-methyl-N-(3-(1-((6-methylthieno[2,3-b]pyrazin-3-yl)amino)ethyl)phenyl)nicotinamide], the IC50 in assay [1] and in assay [2] was below 300 nM in each case.
As to `Cc1c[nH]c2ncc(N[C@@H](C)c3cccc(NC(=O)c4cc(C(F)(F)F)nn4C)c3)nc12` [Compound 562, (S)-1-methyl-N-(3-(1-((7-methyl-5H-pyrrolo[2,3-b]pyrazin-2-yl)amino)ethyl)phenyl)-3-(trifluoromethyl)-1H-pyrazole-5-carboxamide], the figures for the IC50 in assay [1] and in assay [2] were below 300 nM and 300 to 1000 nM, respectively.
As to `CCn1cc2ncc(N[C@@H](C)c3cccc(NC(=O)Cc4ccc(F)c(Cl)c4)c3)nc2n1` [Compound 631, (S)-2-(3-chloro-4-fluorophenyl)-N-(3-(1-((2-ethyl-2H-pyrazolo[3,4-b]pyrazin-6-yl)amino)ethyl)phenyl)acetamide], the half-maximal inhibitory concentration (IC50) in assay [1] and in assay [2] was below 300 nM throughout.
With `CCn1ncc2ncc(N[C@@H](C)c3cccc(NC(=O)c4cncc(C)c4)c3)nc21` [Compound 176, (S)-N-(3-(1-((1-ethyl-1H-pyrazolo[3,4-b]pyrazin-6-yl)amino)ethyl)phenyl)-5-methylnicotinamide], the IC50 in assay [1] and in assay [2] was below 300 nM in each case.
In the case of `CCn1cc2ncc(N[C@@H](C)c3cc(NC(=O)c4ccc(N5CCN(C)CC5)c(C(F)(F)F)c4)ccc3F)nc2n1` [Compound 433, (S)-N-(3-(1-((2-ethyl-2H-pyrazolo[3,4-b]pyrazin-6-yl)amino)ethyl)-4-fluorophenyl)-4-(4-methylpiperazin-1-yl)-3-(trifluoromethyl)benzamide], the IC50 in assay [1] and in assay [2] was below 300 nM each time.
With `C[C@H](Nc1cnc2cnn(C)c2n1)c1cccc(NC(=O)c2cncc(Cl)c2)c1` [Compound 109, (S)-5-chloro-N-(3-(1-((1-methyl-1H-pyrazolo[3,4-b]pyrazin-6-yl)amino)ethyl)phenyl)nicotinamide], the half-maximal inhibitory concentration (IC50) in assay [1] and in assay [2] was below 300 nM throughout.
Consider `COc1ccc(Cn2ccc3ncc(N[C@@H](C)c4cccc(NC(=O)c5cncc(C)c5)c4)nc32)cc1OC` [Compound 88, (S)-N-(3-(1-((5-(3,4-dimethoxybenzyl)-5H-pyrrolo [2,3-b]pyrazin-3-yl)amino)ethyl)phenyl)-5-methylnicotinamide], for which the figures for the IC50 in assay [1] and in assay [2] were below 300 nM and at least 1000 nM, respectively.
For `C[C@H](Nc1cnc2cnn(C)c2n1)c1cc(NC(=O)c2ccc(C3CC3)nc2)ccc1F` [Compound 201, (S)-6-cyclopropyl-N-(4-fluoro-3-(1-((1-methyl-1H-pyrazolo[3,4-b]pyrazin-6-yl)amino)ethyl)phenyl) nicotinamide] the same measures were below 300 nM and below 300 nM.
On to `Cc1cc(C(=O)Nc2cccc([C@H](C)Nc3cnc4cnn(C)c4n3)c2)cnc1O` [Compound 253, (S)-6-hydroxy-5-methyl-N-(3-(1-((1-methyl-1H-pyrazolo[3,4-b]pyrazin-6-yl)amino)ethyl)phenyl)nicotinamide], for which the half-inhibitory concentration (IC50) in assay [1] was below 300 nM; in assay [2] it was at least 1000 nM.
`CCn1cc2ncc(N[C@@H](C)c3cccc(NC(=O)c4cnc(N5CCCC5)s4)c3)nc2n1` [Compound 326, (S)-N-(3-(1-((2-ethyl-2H-pyrazolo[3,4-b]pyrazin-6-yl)amino)ethyl)phenyl)-2-(pyrrolidin-1-yl)thiazole-5-carboxamide]: the 50% inhibitory concentration (IC50) in assay [1] and in assay [2] was below 300 nM each time.
As for `CCn1cc2ncc(N[C@@H](C)c3cccc(NC(=O)c4cnc(NC(C)C)c(C)c4)c3)nc2n1` [Compound 371, (S)-N-(3-(1-((2-ethyl-2H-pyrazolo[3,4-b]pyrazin-6-yl)amino)ethyl)phenyl)-6-(isopropylamino)-5-methylnicotinamide], the figures for the IC50 in assay [1] and in assay [2] were below 300 nM and 300 to 1000 nM, respectively.
In the case of `CCn1cc2ncc(N[C@@H](C)c3cccc(NC(=O)c4ccc(C(F)(F)F)cc4)c3)nc2n1` [Compound 453, (S)-N-(3-(1-((2-ethyl-2H-pyrazolo[3,4-b]pyrazin-6-yl)amino)ethyl)phenyl)-4-(trifluoromethyl)benzamide], the half-inhibitory concentration (IC50) in assay [1] and in assay [2] was below 300 nM throughout.
For the compound `CCn1cc2ncc(N[C@@H](C)c3cccc(NC(=O)Nc4ccc(NC)nc4)c3)nc2n1` [Compound 738, (S)-1-(3-(1-((2-ethyl-2H-pyrazolo[3,4-b]pyrazin-6-yl)amino)ethyl)phenyl)-3-(6-(methylamino)pyridin-3-yl)urea], the concentration for half-maximal inhibition (IC50) in assay [1] was 300 to 1000 nM; in assay [2] it was at least 1000 nM.
For the compound `CCn1cc2ncc(N[C@@H](C)c3cccc(NC(=O)c4cnc(OC)s4)c3)nc2n1` [Compound 325, (S)-N-(3-(1-((2-ethyl-2H-pyrazolo[3,4-b]pyrazin-6-yl)amino)ethyl)phenyl)-2-methoxythiazole-5-carboxamide], the half-maximal inhibitory concentration (IC50) in assay [1] and in assay [2] was at least 1000 nM in each case.
Turning to `C[C@H](Nc1cnc2cnn(C)c2n1)c1cccc(NC(=O)c2cnccc2F)c1` [Compound 131, (S)-4-fluoro-N-(3-(1-((1-methyl-1H-pyrazolo[3,4-b]pyrazin-6-yl)amino)ethyl)phenyl) nicotinamide], the IC50 in assay [1] is 300 to 1000 nM; in assay [2], at least 1000 nM.
For `CCn1cc2ncc(N[C@@H](C)c3cccc(NC(=O)Cc4ccc(OC)cn4)c3)nc2n1` [Compound 697, (S)-N-(3-(1-((2-ethyl-2H-pyrazolo[3,4-b]pyrazin-6-yl)amino)ethyl)phenyl)-2-(5-methoxypyridin-2-yl)acetamide] the same measures were 300 to 1000 nM and at least 1000 nM.
Consider `CCn1cc2ncc(N[C@@H](C)c3cccc(NC(=O)c4ccc(C(=O)N5CCN(C)CC5)c(C)c4)c3)nc2n1` [Compound 472, (S)-N-(3-(1-((2-ethyl-2H-pyrazolo[3,4-b]pyrazin-6-yl)amino)ethyl)phenyl)-3-methyl-4-(4-methylpiperazine-1-carbonyl)benzamide], for which the figures for the half-maximal inhibitory concentration (IC50) in assay [1] and in assay [2] were below 300 nM and 300 to 1000 nM, respectively.
Taken in the same sequence, the figures for `Cc1cncc(C(=O)Nc2cccc([C@H](C)Nc3cnc4cnn(C)c4n3)c2)c1` [Compound 8, (S)-5-methyl-N-(3-(1-((1-methyl-1H-pyrazolo[3,4-b]pyrazin-6-yl)amino)ethyl)phenyl)nicotinamide] were below 300 nM and below 300 nM.
For `CCn1cc2ncc(N[C@@H](C)c3cc(NC(=O)Cc4ccc(C)cn4)ccc3C)nc2n1` [Compound 660, (S)-N-(3-(1-((2-ethyl-2H-pyrazolo[3,4-b]pyrazin-6-yl)amino)ethyl)-4-methylphenyl)-2-(5-methylpyridin-2-yl) acetamide] the same measures were below 300 nM and 300 to 1000 nM.
For `CCOc1ccc(C(=O)Nc2cccc([C@H](C)Nc3cnc4cnn(C)c4n3)c2)cc1C` [Compound 196, (S)-4-ethoxy-3-methyl-N-(3-(1-((1-methyl-1H-pyrazolo[3,4-b]pyrazin-6-yl)amino)ethyl)phenyl)benzamide] the same measures were below 300 nM and below 300 nM.
In the case of `CCn1cc2ncc(N[C@@H](C)c3cccc(NC(=O)Cc4ccc(F)c(C)n4)c3)nc2n1` [Compound 699, (S)-N-(3-(1-((2-ethyl-2H-pyrazolo[3,4-b]pyrazin-6-yl)ainino)ethyl)phenvl)-2-(5-fluoro-6-methylpyridin-2-yl) acetamide], the values for the half-inhibitory concentration (IC50) in assay [1] and in assay [2] were below 300 nM and 300 to 1000 nM, respectively.
